Results taken from PubChem BioAssay (NCI).
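GI50: concentration for 50% inhibition of growth. TGI is the concentration that stops growth completely.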

What was measured:
Assay in all cases: NCI anticancer screen, dose series, 384-well format
HCT-116 colon = system: HCT-116 colon
SF-295 CNS = system: SF-295 CNS
SK-MEL-2 melanoma = system: SK-MEL-2 melanoma
SN12C renal = system: SN12C renal
CCRF-CEM leukemia = system: CCRF-CEM leukemia
NCI-H522 lung = system: NCI-H522 lung
CAKI-1 renal = system: CAKI-1 renal
UACC-62 melanoma = system: UACC-62 melanoma
IGROV1 ovarian = system: IGROV1 ovarian
MALME-3M melanoma = system: MALME-3M melanoma
MDA-MB-435 melanoma = system: MDA-MB-435 melanoma
SF-539 CNS = system: SF-539 CNS
SF-268 CNS = system: SF-268 CNS
T-47D breast = system: T-47D breast
EKVX NSCLC = system: EKVX NSCLC
HL-60(TB) leukemia = system: HL-60(TB) leukemia
KM12 colon = system: KM12 colon
RPMI-8226 leukemia = system: RPMI-8226 leukemia
SNB-19 CNS = system: SNB-19 CNS
COLO 205 colon = system: COLO 205 colon
NCI-H460 NSCLC = system: NCI-H460 NSCLC
HOP-92 NSCLC = system: HOP-92 NSCLC
NCI-H322M lung = system: NCI-H322M lung
OVCAR-8 ovarian = system: OVCAR-8 ovarian
UACC-257 melanoma = system: UACC-257 melanoma
HT29 colon = system: HT29 colon
NCI-H23 lung = system: NCI-H23 lung
OVCAR-3 ovarian = system: OVCAR-3 ovarian
U251 glioblastoma = system: U251 glioblastoma
M14 melanoma = system: M14 melanoma
786-0 renal = system: 786-0 renal
A549 NSCLC = system: A549 NSCLC
LOX IMVI melanoma = system: LOX IMVI melanoma
SK-MEL-28 melanoma = system: SK-MEL-28 melanoma
HCT-15 colon = system: HCT-15 colon
BT-549 breast = system: BT-549 breast
HS 578T breast = system: HS 578T breast
MDA-MB-231 breast = system: MDA-MB-231 breast
SW-620 colon = system: SW-620 colon
DU-145 prostate = system: DU-145 prostate
MDA-MB-468 breast = system: MDA-MB-468 breast
HCC-2998 colon = system: HCC-2998 colon
SK-MEL-5 melanoma = system: SK-MEL-5 melanoma
MOLT-4 leukemia = system: MOLT-4 leukemia
RXF 393 renal = system: RXF 393 renal
NCI/ADR-RES ovarian = system: NCI/ADR-RES ovarian
MCF7 breast = system: MCF7 breast
A498 renal = system: A498 renal
HOP-62 NSCLC = system: HOP-62 NSCLC
PC-3 prostate = system: PC-3 prostate
UO-31 renal = system: UO-31 renal
ACHN renal = system: ACHN renal
K-562 leukemia = system: K-562 leukemia
SK-OV-3 ovarian = system: SK-OV-3 ovarian
OVCAR-5 ovarian = system: OVCAR-5 ovarian
NCI-H226 lung = system: NCI-H226 lung
OVCAR-4 ovarian = system: OVCAR-4 ovarian
TK-10 renal = system: TK-10 renal
SNB-75 CNS = system: SNB-75 CNS

Cc1cc(C(=O)Nc2nc3cccc(Cl)c3n2[C@@H]2CCCCN(C(=O)/C=C/CN(C)C)C2)ccn1
GI50 (HCT-116 colon): 3.17 µM
TGI (HCT-116 colon): 10.9 µM
GI50 (SF-295 CNS): 4.09 µM
TGI (SF-295 CNS): 14.5 µM
GI50 (SK-MEL-2 melanoma): 2430 nM
TGI (SK-MEL-2 melanoma): 7.52 µM
GI50 (SN12C renal): 1790 nM
TGI (SN12C renal): 13.9 µM
GI50 (CCRF-CEM leukemia): 1560 nM
TGI (CCRF-CEM leukemia): 2980 nM
GI50 (NCI-H522 lung): 120 nM
TGI (NCI-H522 lung): 2070 nM
GI50 (CAKI-1 renal): 1440 nM
TGI (CAKI-1 renal): 14.8 µM
GI50 (UACC-62 melanoma): 3.62 µM
TGI (UACC-62 melanoma): 14.1 µM
GI50 (IGROV1 ovarian): 697 nM
TGI (IGROV1 ovarian): 2790 nM
GI50 (MALME-3M melanoma): 2760 nM
TGI (MALME-3M melanoma): 10.8 µM
GI50 (MDA-MB-435 melanoma): 3.35 µM
TGI (MDA-MB-435 melanoma): 12.3 µM
GI50 (SF-539 CNS): 3.23 µM
TGI (SF-539 CNS): 11 µM
GI50 (SF-268 CNS): 3.02 µM
TGI (SF-268 CNS): 14 µM
GI50 (T-47D breast): 2650 nM
TGI (T-47D breast): 17.3 µM
GI50 (EKVX NSCLC): 648 nM
TGI (EKVX NSCLC): 3.73 µM
GI50 (HL-60(TB) leukemia): 1490 nM
TGI (HL-60(TB) leukemia): 2820 nM
GI50 (KM12 colon): 3.36 µM
TGI (KM12 colon): 12.5 µM
GI50 (RPMI-8226 leukemia): 1400 nM
TGI (RPMI-8226 leukemia): 3.77 µM
GI50 (SNB-19 CNS): 3.49 µM
TGI (SNB-19 CNS): 14.9 µM
GI50 (COLO 205 colon): 4.23 µM
TGI (COLO 205 colon): 15.6 µM
GI50 (NCI-H460 NSCLC): 2990 nM
TGI (NCI-H460 NSCLC): 10.6 µM
GI50 (HOP-92 NSCLC): 2930 nM
TGI (HOP-92 NSCLC): 13.9 µM
GI50 (NCI-H322M lung): 367 nM
TGI (NCI-H322M lung): 10.1 µM
GI50 (OVCAR-8 ovarian): 3.15 µM
TGI (OVCAR-8 ovarian): 13.7 µM
GI50 (UACC-257 melanoma): 2560 nM
TGI (UACC-257 melanoma): 8.75 µM
GI50 (HT29 colon): 4.41 µM
TGI (HT29 colon): 16.1 µM
GI50 (NCI-H23 lung): 2830 nM
TGI (NCI-H23 lung): 10.5 µM
GI50 (OVCAR-3 ovarian): 1460 nM
TGI (OVCAR-3 ovarian): 4.15 µM
GI50 (U251 glioblastoma): 2610 nM
TGI (U251 glioblastoma): 8.17 µM
GI50 (M14 melanoma): 2750 nM
TGI (M14 melanoma): 11.5 µM
GI50 ([…]-0 renal): 2980 nM
TGI (786-0 renal): 13.1 µM
GI50 (A549 NSCLC): 2490 nM
TGI (A549 NSCLC): 13.6 µM
GI50 (LOX IMVI melanoma): 2240 nM
TGI (LOX IMVI melanoma): 5.51 µM
GI50 (SK-MEL-28 melanoma): 7.02 µM
TGI (SK-MEL-28 melanoma): 20.1 µM
GI50 (HCT-15 colon): 2730 nM
TGI (HCT-15 colon): 10.7 µM
GI50 (BT-549 breast): 2660 nM
TGI (BT-549 breast): 9.69 µM
GI50 (HS 578T breast): 1620 nM
TGI (HS 578T breast): 6.37 µM
GI50 (MDA-MB-231 breast): 4.34 µM
TGI (MDA-MB-231 breast): 17 µM
GI50 (SW-620 colon): 2930 nM
TGI (SW-620 colon): 8.65 µM
GI50 (DU-145 prostate): 2340 nM
TGI (DU-145 prostate): 13.6 µM
GI50 (MDA-MB-468 breast): 111 nM
TGI (MDA-MB-468 breast): 507 nM
GI50 (HCC-2998 colon): 2440 nM
TGI (HCC-2998 colon): 6.43 µM
GI50 (SK-MEL-5 melanoma): 1710 nM
TGI (SK-MEL-5 melanoma): 4.83 µM
GI50 (MOLT-4 leukemia): 1400 nM
TGI (MOLT-4 leukemia): 2720 nM
GI50 (RXF 393 renal): 4.04 µM
TGI (RXF 393 renal): 15.3 µM
GI50 (NCI/ADR-RES ovarian): 2300 nM
TGI (NCI/ADR-RES ovarian): 9.63 µM
GI50 (MCF7 breast): 2510 nM
TGI (MCF7 breast): 11.3 µM
GI50 (A498 renal): 1450 nM
TGI (A498 renal): 10.8 µM
GI50 (HOP-62 NSCLC): 1930 nM
TGI (HOP-62 NSCLC): 5.59 µM
GI50 (PC-3 prostate): 3.45 µM
TGI (PC-3 prostate): 14.3 µM
GI50 (UO-31 renal): 2050 nM
TGI (UO-31 renal): 12.9 µM
GI50 (ACHN renal): 1480 nM
TGI (ACHN renal): 12.5 µM
GI50 (K-562 leukemia): 3.03 µM
TGI (K-562 leukemia): 12.4 µM
GI50 (SK-OV-3 ovarian): 928 nM
TGI (SK-OV-3 ovarian): 10.2 µM
GI50 (OVCAR-5 ovarian): 3.08 µM
TGI (OVCAR-5 ovarian): 14.2 µM
GI50 (NCI-H226 lung): 3.39 µM
TGI (NCI-H226 lung): 15.9 µM
GI50 (OVCAR-4 ovarian): 3.56 µM
TGI (OVCAR-4 ovarian): 14.7 µM
GI50 (TK-10 renal): 494 nM
TGI (TK-10 renal): 7.41 µM
GI50 (SNB-75 CNS): 5.5 µM
TGI (SNB-75 CNS): 17.9 µM
